pIC50: −log10 of the molar value. Several values for one entry are separate records, joined by “and”; a condition that tells them apart may be missing. Equal values may be shown once. Each block holds one molecule with its values, some of them ahead of it.
System: 276233-004-R-J1-PDC complex spheroid viability
Experiment: Anticancer human tumor 276233-004-R-J1-PDC patient-derived colon adenocarcinoma cell line growth inhibition [GQUAD]
Settings: for viability, T/C: stronger effect = lower value
Description: DNA G-quadruplex Stabilizer Agents in Combinations in Complex Spheroids
A high-throughput screen of multi-cell type tumor spheroids was designed to identify active combinations of DNA G-quadruplex stabilizer agents and targeted small molecules. Complex spheroids include a stromal component modeled by human endothelial cells (HUVEC) and fibroblasts modeled by human mesenchymal stem cells (MSCs). The concentration ranges selected for each drug and investigational agent were based upon clinically achievable concentrations if the clinical Cmax of the agent was known.
Compounds. The drugs and investigational agents: pidnarulex (CX-5461; NSC782164), APTO-253 (NSC789042), BRACO-19 (NSC847499), peposertib (NSC802822), ceralasertib (NSC780249), elimusertib (NSC800525), camonsertib (NSC841442), AZD-1390 (NSC803789), olaparib (NSC753686), talazoparib (NSC767125), ART-558 (NSC835418), sotorasib (NSC818433), MRTX-1133 (NSC836407), SN-38 (NSC673596), topotecan (NSC609699), etoposide (NSC141540), doxorubicin (NSC123127), gemcitabine (NSC613327), 5-fluorouracil (NSC19893), paclitaxel (NSC125973), vemurafenib (NSC761431), panobinostat (NSC761190), R-306465 (JNJ-16241199; NSC773264), adavosertib (NSC754352), TP-3654 (NSC805149), carboplatin (NSC241240), KSQ-4279 (NSC840948), and staurosporine (NSC755774) were obtained from the National Cancer Institute (NCI) Developmental Therapeutics Program Chemical Repository (34). The FDA-approved anticancer drug set is available from the NCI Developmental Therapeutics Program. […] The stock solutions were prepared in dimethyl sulfoxide (DMSO, Sigma-Aldrich, St. Louis, MO, cat. D2650) at 800-fold the tested concentration and stored at -70 degrees C prior to their use. All drugs and investigational agents were tested over a range starting from a high concentration at or near the clinical Cmax and decreasing in half-log increments. If the clinical Cmax for an agent had not been determined, the highest concentration tested was 10 microM.
2.3 Cell Culture. All cells were maintained in an incubator at 37 degrees C and 5% CO2 with 95% humidity. The PDC lines were cultured according to standard operating procedures established by the NCI PDMR. All PDCs were thawed and cultured in Matrigel-coated flasks prepared with a working solution of 1X Ham's F-12 nutrient mix, without supplementation (Invitrogen, cat. 11765054), 100 U/mL penicillin-streptomycin (Invitrogen, cat. 15140122), and 2.5% Matrigel (Corning Inc., cat. 354248) for the first three passages. The 857933-349-R-J2-PDC line was cultured in 6C/Colon 1B media, which includes advanced DMEM/F-12 (Thermo Fisher Scientific, cat. 12634028), 10 mM HEPES (Thermo Fisher Scientific, cat. 15630080), 1X GlutaMAX supplement (Thermo Fisher Scientific, cat. 35050061), 0.1 mg/mL primocin (InvivoGen, cat. ant-pm-2), 10% defined fetal bovine serum, heat inactivated (HyClone Laboratories Inc., cat. SH30070.03HI), 50% L-WRN conditioned media (ATCC, cat. CRL-3276), 1.25 mM N-Acetyl-L-cysteine (Sigma-Aldrich, cat. A9165), 10 mM nicotinamide (Sigma-Aldrich, cat. N0636), 1X B-27 supplement (Thermo Fisher Scientific, cat. 17504044), 1X N-2 supplement (Thermo Fisher Scientific, cat. 17502048), 10 microM Y-27632 dihydrochloride (Tocris Bioscience, cat. 1254), and 50 ng/mL human EGF recombinant protein (Thermo Fisher Scientific, cat. PHG0311). The 485176-168-R4-J1-PDC line was cultured in Panc media, which includes all 6C/Colon 1B media components plus 100 ng/mL human FGF-10 (Thermo Fisher Scientific, cat. 100-26), 500 nM SB-431542 (Selleckchem, cat. S1067), and gastrin (Tocris, cat. 3006).
[…]

[1] = curve of first compound, second compound 0.0316 µM
[2] = curve of first compound, second compound 0.1 µM
[3] = curve of first compound, second compound 0.316 µM
[4] = curve of first compound, second compound 1 µM
[5] = curve of first compound, second compound 3.16 µM
[6] = curve of first compound, second compound 10 µM
[7] = second compound 0.0316 µM, first compound 0.0316 µM
[8] = second compound 0.0316 µM, first compound 0.1 µM
[9] = second compound 0.0316 µM, first compound 0.316 µM
[10] = second compound 0.0316 µM, first compound 1 µM
[11] = second compound 0.0316 µM, first compound 3.16 µM
[12] = second compound 0.0316 µM, first compound 10 µM
[13] = second compound 0.1 µM, first compound 0.0316 µM
[14] = second compound 0.1 µM, first compound 0.1 µM
[15] = second compound 0.1 µM, first compound 0.316 µM
[16] = second compound 0.1 µM, first compound 1 µM
[17] = second compound 0.1 µM, first compound 3.16 µM
[18] = second compound 0.1 µM, first compound 10 µM
[19] = second compound 0.316 µM, first compound 0.0316 µM
[20] = second compound 0.316 µM, first compound 0.1 µM
[21] = second compound 0.316 µM, first compound 0.316 µM
[22] = second compound 0.316 µM, first compound 1 µM
[23] = second compound 0.316 µM, first compound 3.16 µM
[24] = second compound 0.316 µM, first compound 10 µM
[25] = second compound 1 µM, first compound 0.0316 µM
[26] = second compound 1 µM, first compound 0.1 µM
[27] = second compound 1 µM, first compound 0.316 µM
[28] = second compound 1 µM, first compound 1 µM
[29] = second compound 1 µM, first compound 3.16 µM
[30] = second compound 1 µM, first compound 10 µM
[31] = second compound 3.16 µM, first compound 0.0316 µM
[32] = second compound 3.16 µM, first compound 0.1 µM
[33] = second compound 3.16 µM, first compound 0.316 µM
[34] = second compound 3.16 µM, first compound 1 µM
[35] = second compound 3.16 µM, first compound 3.16 µM
[36] = second compound 3.16 µM, first compound 10 µM
[37] = second compound 10 µM, first compound 0.0316 µM
[38] = second compound 10 µM, first compound 0.1 µM
[39] = second compound 10 µM, first compound 0.316 µM
[40] = second compound 10 µM, first compound 1 µM
[41] = second compound 10 µM, first compound 3.16 µM
[42] = second compound 10 µM, first compound 10 µM
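Also: spheroids exposed to drugs for seven days.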
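For viability, T/C in this document: 100% = DMSO vehicle control viability.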

Structure (SMILES): Cc1cccc(N(C)C(=O)C2C(O)CCN2c2nc(C)cc(C(F)(F)F)c2C#N)c1 (stereo not given) + Cc1[nH]c2ccc(F)cc2c1-c1nc2c3cccnc3c3ncccc3c2[nH]1
- pIC50 [1]: < 5.00
- pIC50 [2]: < 5.00
- pIC50 [3]: < 5.00
- pIC50 [4]: < 5.00
- pIC50 [5]: < 5.00
- pIC50 [6]: < 5.00
- viability, T/C [7]: 110%
- viability, T/C [8]: 83.8%
- viability, T/C [9]: 87.2%
- viability, T/C [10]: 87.4%
- viability, T/C [11]: 117%
- viability, T/C [12]: 114%
- viability, T/C [13]: 88.2%
- viability, T/C [14]: 95.6%
- viability, T/C [15]: 86.4%
- viability, T/C [16]: 95.3%
- viability, T/C [17]: 96.6%
- viability, T/C [18]: 97.8%
- viability, T/C [19]: 74.6%
- viability, T/C [20]: 78%
- viability, T/C [21]: 103%
- viability, T/C [22]: 97.8%
- viability, T/C [23]: 96%
- viability, T/C [24]: 96.8%
- viability, T/C [25]: 77.4%
- viability, T/C [26]: 85.2%
- viability, T/C [27]: 71.6%
- viability, T/C [28]: 79.2%
- viability, T/C [29]: 90.5%
- viability, T/C [30]: 85.2%
- viability, T/C [31]: 60.5%
- viability, T/C [32]: 56.8%
- viability, T/C [33]: 61.6%
- viability, T/C [34]: 59.6%
- viability, T/C [35]: 59.8%
- viability, T/C [36]: 62.6%
- viability, T/C [37]: 53.7%
- viability, T/C [38]: 58.4%
- viability, T/C [39]: 58.6%
- viability, T/C [40]: 52.1%
- viability, T/C [41]: 58%
- viability, T/C [42]: 64.7%

Structure (SMILES): CC1COCCN1c1cc(-c2ccnn2C)c2ccnc(-c3ccn[nH]3)c2n1 (stereo not given) + CN(C)c1ccc(Nc2c3ccc(NC(=O)CCN4CCCC4)cc3nc3cc(NC(=O)CCN4CCCC4)ccc23)cc1
- pIC50 [1]: 5.15
- pIC50 [2]: 5.21
- pIC50 [3]: 6.29
- pIC50 [4]: 6.96
- pIC50 [5]: 6.84
- pIC50 [6]: > 7.50
- viability, T/C [7]: 83.7%
- viability, T/C [8]: 77.8%
- viability, T/C [9]: 74.8%
- viability, T/C [10]: 73.1%
- viability, T/C [11]: 55%
- viability, T/C [12]: 47.9%
- viability, T/C [13]: 80.4%
- viability, T/C [14]: 70%
- viability, T/C [15]: 76.6%
- viability, T/C [16]: 69.9%
- viability, T/C [17]: 56.3%
- viability, T/C [18]: 44.1%
- viability, T/C [19]: 77.9%
- viability, T/C [20]: 61.6%
- viability, T/C [21]: 51.6%
- viability, T/C [22]: 52.5%
- viability, T/C [23]: 35.3%
- viability, T/C [24]: 40.3%
- viability, T/C [25]: 52.9%
- viability, T/C [26]: 54.1%
- viability, T/C [27]: 44.7%
- viability, T/C [28]: 40.5%
- viability, T/C [29]: 38.2%
- viability, T/C [30]: 34.4%
- viability, T/C [31]: 58.5%
- viability, T/C [32]: 56%
- viability, T/C [33]: 42.6%
- viability, T/C [34]: 40.5%
- viability, T/C [35]: 40.4%
- viability, T/C [36]: 35.5%
- viability, T/C [37]: 46.2%
- viability, T/C [38]: 40.1%
- viability, T/C [39]: 33.8%
- viability, T/C [40]: 32.6%
- viability, T/C [41]: 39.8%
- viability, T/C [42]: 27.8%

- pIC50 (compound alone, run of 02/20/2024): < 5.00
Structure (SMILES): Cc1cnc(CNC(=O)c2c(=O)c3ccc(N4CCCN(C)CC4)nc3n3c2sc2ccccc23)cn1
- viability, T/C (compound 1 µM): 85.5% [middle of 12 runs]
- viability, T/C (compound 3.16 µM): 74.2% [middle of 12 runs]
- viability, T/C (compound 10 µM): 68.8% [middle of 12 runs]

- pIC50 (curve of compound): < 5.00
Structure (SMILES): O=C(c1cc(Cc2n[nH]c(=O)c3ccccc23)ccc1F)N1CCN(C(=O)C2CC2)CC1
- viability, T/C (compound 0.0316 µM): 98.7% and 82% and 96.7%
- viability, T/C (compound 0.1 µM): 74.7% and 85.1% and 87.7%
- viability, T/C (compound 0.316 µM): 99.8% and 90.6% and 79%
- viability, T/C (compound 1 µM): 93.7% and 103% and 84.8%
- viability, T/C (compound 3.16 µM): 82.7% and 91.9% and 88%
- viability, T/C (compound 10 µM): 94.1% and 79.9% and 97.9%

Reference: PubChem BioAssay AID2060496 (Molecular Pharmacology Branch, DTP, NCI, 2025)
